Laboratory results published in ChEMBL document CHEMBL4130412, “Characterization of the Degradation Profile of Umbelliprenin, a Bioactive Prenylated Coumarin of a Ferulago Species” (J Nat Prod, 2017).
Values belong to the compound of their own block, whether it stands above or below them.

What was measured:
Format in all cases: physicochemical
[1] = Photochemical stability of the compound assessed as compound degradation under sunlight in EtOH solution measured after 24 hrs by HPLC analysis; conditions: read-out: Drug degradation
[2] = Photochemical stability of the compound assessed as compound degradation under 254 nm UV-light exposure in EtOH solution measured after 24 hrs by HPLC analysis; conditions: read-out: Drug degradation
[3] = Photochemical stability of the compound assessed as compound degradation under sunlight in EtOH solution measured after 4 days by HPLC analysis; conditions: read-out: Drug degradation
[4] = Thermal stability of the compound assessed as compound degradation at 37 degC in EtOH solution after 48 hrs by HPLC analysis; conditions: read-out: Drug degradation
[5] = Thermal stability of the compound assessed as compound degradation at 40 degC in EtOH solution after 48 hrs by HPLC analysis; conditions: read-out: Drug degradation
[6] = Thermal stability of the compound at 37 degC in EtOH solution after 3 to 4 days by HPLC analysis
[7] = Thermal stability of the compound at 40 degC in EtOH solution after 3 to 4 days by HPLC analysis
[8] = Thermal stability of the compound assessed as compound degradation at 80 degC in EtOH solution measured up to 96 hrs by HPLC analysis; conditions: read-out: Drug degradation
[9] = Stability of the compound assessed as compound degradation in 3% H2O2 solution at room temperature in EtOH solution after 24 hrs by HPLC analysis; conditions: 3% H2O2 solution in EtOH solution; read-out: Drug degradation
[10] = Stability of the compound assessed as compound degradation in 3% H2O2 solution at 40 degC in EtOH solution after 24 hrs by HPLC analysis; conditions: 3% H2O2 solution in EtOH solution; read-out: Drug degradation
[11] = Stability of the compound assessed as compound degradation in 3% H2O2 solution at room temperature in EtOH solution after 96 hrs by HPLC analysis; conditions: 3% H2O2 solution in EtOH solution; read-out: Drug degradation
[12] = Stability of the compound assessed as compound degradation in 3% H2O2 solution at 40 degC in EtOH solution after 96 hrs by HPLC analysis; conditions: 3% H2O2 solution in EtOH solution; read-out: Drug degradation
[13] = Stability of the compound assessed as compound degradation in 0.1 M NaOH solution at room temperature in EtOH solution after 96 hrs by HPLC analysis; conditions: 0.1 M NaOH solution in EtOH solution; read-out: Drug degradation
[14] = Stability of the compound assessed as compound degradation in 0.1 M NaOH solution at 60 degC in EtOH solution after 96 hrs by HPLC analysis; conditions: 0.1 M NaOH solution in EtOH solution; read-out: Drug degradation
[15] = Stability of the compound assessed as compound degradation in 0.1 M HCl solution at room temperature in EtOH solution after 96 hrs by HPLC analysis; conditions: 0.1 M HCl solution in EtOH solution; read-out: Drug degradation
[16] = Stability of the compound assessed as compound degradation in 0.1 M HCl solution at 60 degC in EtOH solution after 24 hrs by HPLC analysis; conditions: 0.1 M HCl solution in EtOH solution; read-out: Drug degradation
[17] = Photochemical stability of the compound assessed as compound degradation under sunlight using solid samples measured up to 96 hrs by HPLC analysis; conditions: read-out: Drug degradation
[18] = Photochemical stability of the compound assessed as compound degradation under 254 nm UV-light exposure using solid samples measured up to 96 hrs by HPLC analysis; conditions: read-out: Drug degradation
[19] = Thermal stability of the compound assessed as compound degradation at 37 to 80 degC using solid samples after 96 hrs by HPLC analysis; conditions: read-out: Drug degradation
[20] = Stability of the compound assessed as compound degradation in 0.1 M NaOH solution at 60 to 80 degC using solid sample up to 96 hrs by HPLC analysis
[21] = Stability of the compound assessed as compound degradation in 0.1 M HCl solution at 60 to 80 degC using solid sample up to 96 hrs by HPLC analysis; conditions: buffer
[22] = Photostability of the compound assessed as parent compound remaining under sunlight exposed for 3 days in EtOH solution measured in presence of UV-A filter avobenzone by TLC method; conditions: read-out: Stability
[23] = Photostability of the compound assessed as parent compound remaining under sunlight exposed for 3 days in EtOH solution measured in presence of UV-A filter DHHB by TLC method; conditions: read-out: Stability
[24] = Photostability of the compound assessed as parent compound remaining under sunlight exposed for 3 days in EtOH solution measured in presence of UV-B filter octinoxate by TLC method; conditions: read-out: Stability
[25] = Photostability of the compound assessed as parent compound remaining under sunlight exposed for 3 days in EtOH solution measured in presence of antioxidant DL-alpha-tocopherol acetate by TLC method; conditions: read-out: Stability
[26] = Photostability of the compound assessed as parent compound remaining under sunlight exposed for 6 days in EtOH solution measured in presence of UV-A filter avobenzone by TLC method; conditions: read-out: Stability
[27] = Photostability of the compound assessed as parent compound remaining under sunlight exposed for 6 days in EtOH solution measured in presence of UV-A filter DHHB by TLC method; conditions: read-out: Stability
[28] = Photostability of the compound assessed as parent compound remaining under sunlight exposed for 6 days in EtOH solution measured in presence of UV-B filter octinoxate by TLC method; conditions: read-out: Stability
[29] = Photostability of the compound assessed as parent compound remaining under sunlight exposed for 6 days in EtOH solution measured in presence of antioxidant DL-alpha-tocopherol acetate by TLC method; conditions: read-out: Stability
[30] = Photostability of the compound assessed as parent compound remaining under sunlight exposed for 3 days in EtOH solution measured by TLC method; conditions: read-out: Stability
[31] = Photostability of the compound assessed as parent compound remaining under sunlight exposed for 6 days in EtOH solution measured by TLC method; conditions: read-out: Stability
[32] = Drug level treated with umbelliprenin under sunlight in EtOH solution after 6 days by 1H-NMR analysis; conditions: 144 h

degraded at 24 h [1]: 70.4%
degraded at 24 h [2]: 25.8%
degraded at 96 h [3]: 91.6%
degraded at 48 h [4]: 1.8%
degraded at 48 h [5]: 12.7%
Stability [6]: Unstable
Stability [7]: Unstable
degraded at 96 h [8]: 34%
degraded at 24 h [9]: 19.1%
degraded at 24 h [10]: 39.4%
degraded at 96 h [11]: 41.6%
degraded at 96 h [12]: 50.1%
degraded at 96 h [13]: 85%
degraded at 96 h [14]: 85%
degraded at 96 h [15]: 22.2%
degraded at 24 h [16]: > 95%
degraded at 96 h [17]: 64.7%
degraded at 96 h [18]: 59.4%
degraded at 96 h [19]: 54.6 to 65.1%
Stability [20]: Stable
Stability [21]: Stable
remaining at 72 h [22]: 97%
remaining at 72 h [23]: 100%
remaining at 72 h [24]: 56%
remaining at 72 h [25]: 32%
remaining at 144 h [26]: 88%
remaining at 144 h [27]: 98%
remaining at 144 h [28]: 13%
remaining at 144 h [29]: 10%
remaining at 72 h [30]: 35%
remaining at 144 h [31]: 9%
SMILES: CC(C)=CCC/C(C)=C/CC/C(C)=C/COc1ccc2ccc(=O)oc2c1 [UMBELLIPRENIN]

Drug metabolism [32]: Metabolite_Detected
SMILES: C/C1=C\COc2ccc3c(c2)OC(=O)C2C3C(CC/C(C)=C/CC1)C2(C)C (stereo not drawn)

Drug metabolism [32]: Metabolite_Detected
SMILES: CC(C)=CCC/C(C)=C/CC/C(C)=C/COc1ccc2c(c1)OC(=O)[C@@H]1[C@@H]3C(=O)Oc4cc(OC/C=C(\C)CC/C=C(\C)CCC=C(C)C)ccc4[C@@H]3[C@H]21
